pEC50, pIC50: −log10 of the molar value.
How the values were obtained:
[1] = tested on: HCV replicon (Renilla luciferase reporter) in HUH-7 cells; assay: HCV replicon luciferase reporter assay; type: cell-based; details: Huh-7, read-out: EC50 in the replicon Luciferase assay
Excerpt: An HCV replicon whole cell system was established as described by Lohmann V, Korner F, Koch J, Herian U, Theilmann L, Bartenschlager R., Science 285(5424): 110-3 (1999). This system enabled us to evaluate the effects of our HCV Protease compounds on HCV RNA replication. Briefly, using the HCV strain 1b sequence described in the Lohmann paper (Assession number: AJ238799), an HCV cDNA was synthesized by Operon Technologies, Inc. (Alameda, Calif.), and the full-length replicon was then assembled in plasmid pGem9zf(+) (Promega, Madison, Wis.) using standard molecular biology techniques. The replicon consists of (i) the HCV 5′ UTR fused to the first 12 amino acids of the capsid protein, (ii) the neomycin phosphotransferase gene (neo), (iii) the IRES from encephalomyocarditis virus (EMCV), and (iv) HCV NS3 to NS5B genes and the HCV 3′ UTR. […]
As a secondary assay, EC50 determinations from the replicon FRET assay were confirmed in a replicon luciferase reporter assay. […] Following 4 days in a 37° C./5% CO2 incubator, cells were analyzed for Renilla Luciferase activity using the Promega Dual-Glo Luciferase Assay System. […] Plates were read on a Packard TopCount NXT using a luminescence program.
The percentage inhibition was calculated using the formula below: […]
The values were graphed and analyzed using XLfit to obtain the EC50 value.

[2] = target: T1, porcine pancreatic elastase (PPE) (Sus scrofa, UniProt P00772); assay: Specificity assay, pancreatic elastase; type: biochemical; details: read-out: PPE activity in the specificity assays
T1 construct: purchased Sigma, EMDbiosciences
T1 sequence (P00772 27-266): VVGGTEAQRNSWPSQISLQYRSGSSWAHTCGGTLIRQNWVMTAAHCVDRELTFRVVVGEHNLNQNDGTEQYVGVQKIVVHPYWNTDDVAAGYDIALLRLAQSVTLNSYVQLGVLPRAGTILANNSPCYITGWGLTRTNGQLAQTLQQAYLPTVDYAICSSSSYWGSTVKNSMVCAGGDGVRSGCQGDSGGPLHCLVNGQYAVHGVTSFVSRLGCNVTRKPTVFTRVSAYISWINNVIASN
Description: The specificities of compounds of the present disclosure were determined against a variety of serine proteases: human neutrophil elastase (HNE), porcine pancreatic elastase (PPE) and human pancreatic chymotrypsin and one cysteine protease: human liver cathepsin B. In all cases a 96-well plate format protocol using a fluorometric Amino-Methyl-Coumarin (AMC) substrate specific for each enzyme was used as described previously (PCT Patent Application No. WO 00/09543) with some modifications to the serine protease assays. All enzymes were purchased from Sigma, EMDbiosciences while the substrates were from Bachem, Sigma and EMDbiosciences.
Compound concentrations varied from 100 to 0.4 μM depending on their potency. The enzyme assays were each initiated by addition of substrate to enzyme-inhibitor pre-incubated for 10 min at room temperature and hydrolysis to 15% conversion as measured on cytofluor.
50 mM Tris-HCl, pH 8.0, 50 mM NaCl, 0.1 mM EDTA, 3% DMSO, 0.02% Tween-20, 5 μM succ-AAPV-AMC and 20 nM HNE or 8 nM PPE;
The percentage of inhibition was calculated using the formula: [1−((UVinh−UVblank)/(UVctl−UVblank))]×100
A non-linear curve fit was applied to the inhibition-concentration data, and the 50% effective concentration (IC50) was calculated by the use of Excel XLfit software.

## C=C[C@@H]1C[C@]1(NC(=O)[C@@H]1C[C@@](O)(c2ccc(-c3ccccc3)cc2)CN1C(=O)[C@@H](NC(=O)OC(C)(C)C)C(C)(C)C)C(=O)NS(=O)(=O)C1CC1 [Compound 3]
[1]
  pEC50: 8.85
[2]
  pIC50: < 4.00
